Reference: patent US20160052918A1, “SMALL COMPOUNDS TARGETING TACC3” (JAPANESE FOUNDATION FOR CANCER RESEARCH, priority 2012, published 2016)
Values after ≈ are worked out from the molar mass of the structure shown.

Tests used:
[1] = target: T1, TACC3-DsRed fusion protein (Homo sapiens, UniProt Q9Y6A5); experiment: Chemical array screening for compounds binding to TACC3-DsRed fusion protein; conditions: compound immobilized on chemical array, cell lysate
T1 construct: expressed in transfected cells; host or cells: HEK293T
Procedure: The present inventors screened for compounds targeting at TACC3 using a chemical array (FIG. 1).
According to the protocol of Miyazaki et al. (Non Patent Literature 13), a cell lysate containing a TACC3-DsRed fusion protein was contacted with the chemical array to screen for a compound binding to the TACC3-DsRed fusion protein (FIG. 1, upper diagram).
The cell lysate containing a TACC3-DsRed fusion protein is prepared as follows.
Human TACC3 cDNA was cloned into pDsRed-Express-N1 (Registered Trade Mark) (manufactured by Clontech Laboratories, Inc.), which was then transferred to HEK293T cells. Forty eight hours after transfection, the cells were collected. The obtained cells were sonicated in PBS and centrifuged for removal of insoluble substances to obtain a cell lysate. The cell lysate was confirmed the presence of the TACC3-DsRed fusion protein using anti-TACC3 and anti-DsRed antibodies.
The cell lysate containing a TACC3-DsRed fusion protein was contacted with the chemical array. After washing, the TACC3-DsRed fusion protein bound with a compound immobilized on the chemical array was detected. The detection of the TACC3-DsRed fusion protein with a compound was carried out by the excitation of a chemical array slide with a wavelength of 532 nm and the detection of fluorescence at 575 nm

[2] = system: cultured cells; experiment: Visual screening (microscopic observation) for abnormal cell division in cultured cells; format: cell-based; conditions: added into culture medium
Description: As a result of screening 6800 compounds, 70 compounds were bound with the TACC3-DsRed fusion protein. These 70 compounds recognized to bind to the TACC3-DsRed fusion protein were each added into a culture medium of cultured cells. Compounds inducing abnormal cell division were selected by microscopic observation. As a result, 4 compounds were screened for as compounds inhibiting cell division (FIG. 1, lower diagram, visual screening).

[3] = system: SKOV-3 cells expressing EGFP-α-tubulin; experiment: Mitotic arrest of synchronized EGFP-α-tubulin-expressing SKOV-3 cells, time-lapse single-cell analysis; format: cell-based; conditions: for EC50: Homo sapiens, SK-OV-3, 72 h, mitotic arrest, EC50=50% arrest rate, double thymidine block, time-lapse 3 days, at least 50 cells, read-out: SKOV3 EC50; for inhibitory effects on cell growth: summary of Table 2 (SKOV-3 mitotic arrest and lymphoma cell death); for Remarks: start of mitosis: At 66.7 μg/ml; for Remarks: cytotoxic: Table 2 remark
Procedure: The EGFP-α-tubulin-expressing cells used in the assay will be described. In order to observe mitosis under a fluorescence microscope, cells expressing EGFP-α-tubulin (fusion protein of a fluorescent protein, EGFP, and α-tubulin) were prepared. A system observable under a fluorescence microscope without cell fixation was prepared.
Ovary cancer cells SKOV-3 were cultured in an RPMI1640 medium supplemented with 5% fetal bovine serum. Stable cells expressing EGFP-α-tubulin were transduced by lentiviral transduction using pLenti4/V5-DEST vectors (Registered Trade Mark) (manufactured by Invitrogen Corp.) and selected by the FACS sorting of infected cells using Zeocin (Registered Trade Mark) and subsequent FACSAria (Registered Trade Mark) (Becton, Dickinson and Company).
The compounds NPD2448, NPD2568, NPD3574, NPD4089, and C7—O-propylated NPD3574 were each added at varying concentrations to the culture medium of SKOV-3 cells expressing EGFP-α-tubulin and analyzed for their effect on cell division.
The SKOV-3 cells expressing EGFP-α-tubulin were synchronized by thymidine block to analyze the effect on cell division of each compound. As shown in the upper part of FIG. 2, each compound was added to the culture medium after the 1st thymidine block. After synchronization by the second thymidine block, images were taken every 2 minutes for 3 days using Leica AF6000 and ×20/0.5 Plan Fluotar objective lens in a phenol red-free RPMI1640 medium supplemented with 5% fetal bovine serum. These time-lapse images were analyzed using ImageJ 1.42a software, and the time of mitotic arrest was determined by visual judgment. The duration of mitosis was manually determined from the image sequences of at least 50 cells.
The mitotic arrest (EC50=50% arrest rate) was tested by the microscopic analysis of individual single cells.
EGFP-α-tubulin-expressing SKOV-3 cells synchronized by double thymidine block in the same way as in Example 2 were treated with each synthesized compound and subjected to time-lapse photography for 3 days. At least 50 cells were observed. The time of arrest of each cell was calculated, and EC50 was determined therefrom.
EGFP-α-tubulin-expressing SKOV-3 cells supplemented with each of SPL-A and SPL-B at varying concentrations were synchronized by double thymidine block in the same way as in Example 2. Analysis based on single cells was conducted by time-lapse photography. The duration of mitosis was measured from the image sequences of at least 50 cells.

[4] = system: mouse lymphoma cell line; experiment: Cell death of lymphoma (survival rate, WST-1); format: cell-based; conditions: 72 h, IC50=50% survival rate, three days
Procedure: The synthesized compounds were analyzed for their activity against cell death induction using a mouse lymphoma cell line (see Non Patent Literature 12), which was a cell line derived from thymic lymphoma developed in p53KO mouse.
The number of the lymphoma cells was adjusted to 1.2×10^5 cells/ml. The cells were inoculated at a concentration of 50 μl/well to a 96-well culture dish. A medium containing each RT compound as the novel compound of the present invention at twice the concentration of 50 μl was further added thereto (final concentration: 0.021 to 13.3 μg/ml). Three days after cultivation, the survival rate was calculated using WST-1 reagent (manufactured by F. Hoffmann-La Roche, Ltd.).

[5] = Solubility remarks of Table 2; format: physicochemical; conditions: Table 2 remark
[6] = system: p53-knockout cells derived from human colon cancer cells HCT-116; experiment: Cell growth by WST assay, combined use of SPL-B and paclitaxel; format: cell-based; conditions: HCT-116, 72 h, three days
Procedure: p53-knockout cells derived from human colon cancer cells HCT-116 were cultured after combined administration of paclitaxel and SPL-B. Three days after cultivation, the survival rate of the cells was measured by WST assay.

SMILES | EC50 [3] [µg/mL] | inhibitory effects on cell growth [3] | IC50 [4] [µg/mL] | also measured
CCCN(CCC)Cc1c(O)ccc2c(-c3cc4ccccc4oc3=O)cc(=O)oc12 [NPD2448] | – | – | – | binding to the TACC3-DsRed fusion protein [1]: bound to the TACC3-DsRed fusion protein; abnormal cell division [2]: induced abnormal cell division
O=c1cc(-c2cc3cc(Cl)ccc3oc2=O)c2ccc(O)c(CN3CCCCCC3)c2o1 [NPD2568] | – | – | – | binding to the TACC3-DsRed fusion protein [1]: bound to the TACC3-DsRed fusion protein; abnormal cell division [2]: induced abnormal cell division
COCCN(CCOC)Cc1c(O)ccc2c(-c3cc4ccccc4oc3=O)cc(=O)oc12 [NPD3574] | 0.85 (≈ 1.88 µM) | remarkable inhibitory effects on cell growth | 1.26 (≈ 2.79 µM) | binding to the TACC3-DsRed fusion protein [1]: bound to the TACC3-DsRed fusion protein; abnormal cell division [2]: induced abnormal cell division
CCCCN(C)Cc1c(O)ccc2c(-c3cc4cc(Br)ccc4oc3=O)cc(=O)oc12 [NPD4089] | – | – | – | binding to the TACC3-DsRed fusion protein [1]: bound to the TACC3-DsRed fusion protein; abnormal cell division [2]: induced abnormal cell division
COCCN(CCOC)Cc1c(O)ccc2c(C)cc(=O)oc12 [RT-001] | > 66.7 | – | – | –
CC(=O)OCc1c(OC(C)=O)ccc2c(-c3cc4ccccc4oc3=O)cc(=O)oc12 [RT-002] | > 13.3 | remarkable inhibitory effects on cell growth | 8.3 (≈ 19.7 µM) | Remarks: start of mitosis [3]: μg/ml, mitosis did not; Remarks: cytotoxic [3]: Cytotoxic. At 66.7
CCN(CC)Cc1c(O)ccc2c(-c3cc4ccccc4oc3=O)cc(=O)oc12 [RT-003] | 0.85 (≈ 2.17 µM) | remarkable inhibitory effects on cell growth | 5.08 (≈ 13 µM) | –
CN(CCO)Cc1c(O)ccc2c(-c3cc4ccccc4oc3=O)cc(=O)oc12 [RT-004] | 8.49 (≈ 21.6 µM) | remarkable inhibitory effects on cell growth | > 13.3 | –
CN(C)CCNCc1c(O)ccc2c(-c3cc4ccccc4oc3=O)cc(=O)oc12 [RT-005] | > 13.3 | remarkable inhibitory effects on cell growth | 5.37 (≈ 13.2 µM) | Remarks: start of mitosis [3]: μg/ml, mitosis did not; Remarks: cytotoxic [3]: Cytotoxic. At 66.7
CCN(CCN(C)C)Cc1c(O)ccc2c(-c3cc4ccccc4oc3=O)cc(=O)oc12 [RT-006] | 1.15 (≈ 2.65 µM) | remarkable inhibitory effects on cell growth | 3.3 (≈ 7.6 µM) | –
O=c1cc(-c2cc3ccccc3oc2=O)c2ccc(O)c(CN3CCCC3)c2o1 [RT-008] | 2.67 (≈ 6.86 µM) | remarkable inhibitory effects on cell growth | 9.77 (≈ 25.1 µM) | –
O=c1cc(-c2cc3ccccc3oc2=O)c2ccc(O)c(CN3CCCCC3)c2o1 [RT-009] | 2.68 (≈ 6.64 µM) | remarkable inhibitory effects on cell growth | 10.1 (≈ 25.1 µM) | –
CC1CCN(Cc2c(O)ccc3c(-c4cc5ccccc5oc4=O)cc(=O)oc23)CC1 [RT-010] | 0.94 (≈ 2.25 µM) | remarkable inhibitory effects on cell growth | 1.64 (≈ 3.93 µM) | –
O=c1cc(-c2cc3ccccc3oc2=O)c2ccc(O)c(CN3CCOCC3)c2o1 [RT-012] | 1.39 (≈ 3.43 µM) | remarkable inhibitory effects on cell growth | 2.05 (≈ 5.06 µM) | –
CCCOc1ccc2c(-c3cc4ccccc4oc3=O)cc(=O)oc2c1CN(CCOC)CCOC [RT-013] | > 66.7 | – | – | –
O=c1cc(-c2cc3ccccc3oc2=O)c2ccc(O)c(CN3CCC(N4CCCCC4)CC3)c2o1 [RT-014] | 8.76 (≈ 18 µM) | remarkable inhibitory effects on cell growth | 8.25 (≈ 17 µM) | –
C#CCOc1ccc2c(-c3cc4ccccc4oc3=O)cc(=O)oc2c1CN(CCOC)CCOC [RT-017] | > 66.7 | – | – | Remarks: solubility [5]: Insoluble
O=c1cc(-c2cc3cc(Cl)ccc3oc2=O)c2ccc(O)cc2o1 [RT-018] | > 66.7 | – | – | Remarks: solubility [5]: Poorly soluble in DMSO
O=c1cc(-c2cc3cc(F)ccc3oc2=O)c2ccc(O)c(CN3CCOCC3)c2o1 [RT-019] | 0.16 (≈ 0.378 µM) | remarkable inhibitory effects on cell growth | 0.12 (≈ 0.283 µM) | –
C=CCOc1ccc2c(-c3cc4ccccc4oc3=O)cc(=O)oc2c1CN(CCOC)CCOC [RT-021] | > 66.7 | – | – | Remarks: solubility [5]: Insoluble
COCCN(CCOC)Cc1c(OCC=C(C)C)ccc2c(-c3cc4ccccc4oc3=O)cc(=O)oc12 [RT-022] | > 66.7 | – | – | Remarks: solubility [5]: Insoluble. At 66.7; Remarks: start of mitosis [3]: μg/ml, mitosis did not
C=CCOc1ccc2c(-c3cc4ccccc4oc3=O)cc(=O)oc2c1C[N+]([O-])(CCOC)CCOC [RT-023] | > 66.7 | – | – | –
COCCN(CCOC)Cc1c(OCC(O)CO)ccc2c(-c3cc4ccccc4oc3=O)cc(=O)oc12 (stereo not shown) [RT-024] | > 66.7 | – | – | –
COCC[N+]([O-])(CCOC)Cc1c(OCC=C(C)C)ccc2c(-c3cc4ccccc4oc3=O)cc(=O)oc12 [RT-025] | > 66.7 | – | – | –
COCCN(CCOC)Cc1c(OCC(O)C(C)(C)O)ccc2c(-c3cc4ccccc4oc3=O)cc(=O)oc12 (stereo not shown) [RT-026] | > 66.7 | – | – | –
COCCN(CCOC)Cc1c(O)ccc2c(-c3cc4cc(Br)ccc4oc3=O)cc(=O)oc12 [RT-028] | 6.56 (≈ 12.4 µM) | remarkable inhibitory effects on cell growth | 3.28 (≈ 6.18 µM) | –
COCCN(CCOC)Cc1c(O)ccc2c(-c3cc4cc(F)ccc4oc3=O)cc(=O)oc12 [RT-029] | 0.17 (≈ 0.362 µM) | remarkable inhibitory effects on cell growth | 0.21 (≈ 0.447 µM) | –
O=c1cc(-c2cc3ccccc3oc2=O)c2ccc(O)cc2o1 [RT-030] | > 66.7 | – | – | –
CC(=O)O[C@H]1C(=O)[C@@]2(C)[C@H]([C@H](OC(=O)c3ccccc3)[C@]3(O)C[C@H](OC(=O)[C@H](O)[C@@H](NC(=O)c4ccccc4)c4ccccc4)C(C)=C1C3(C)C)[C@]1(OC(C)=O)CO[C@@H]1C[C@@H]2O [paclitaxel] | – | – | – | IC50 ([6]; adding SPL-B at 150 μM): 7.7 nM; IC50 ([6]; adding SPL-B at 300 μM): 7.54 nM; IC50 ([6]; in the absence of SPL-B): 8.34 nM
